Data from patent US6451805B1, “Substituted pyrazole derivatives for the treatment of cardiocirculatory diseases” (Bayer Aktiengesellschaft, priority 1999, dated 2002).

How the values were obtained:
[1] = tested on: soluble guanylate cyclase; assay: Stimulation of soluble guanylate cyclase in primary endothelial cells (intracellular cGMP); format: cell-based; conditions: primary rabbit aortic endothelial cells, test substance final concentration 1 μM, 10 min incubation, with or without NO donor (SNP 1 μM)
Protocol: (§1) To determine the cardiovascular actions, the following investigations were carried out: in in vitro investigations on cells of vascular origin, the influx on guanylate cyclase-dependent cGMP formation was tested with and without NO donor. The anti-aggregatory properties were shown on human platelets stimulated with collagen. The vasorelaxant action was determined in rabbit aortal rings precontracted with phenylephrine. The hypotentive action was investigated in anaesthetized rats.
Primary endothelial cells were isolated from rabbit aortas by treatment with collagenase soln. The cells were then cultured in culture medium at 37° C./5% CO2 until confluence was reached. For the investigations, the cells were passaged, inoculated into 24-hole cell culture plates and subcultured until reaching confluence (˜2×10^5 cells/hollow). For the stimulation of endothelial guanylate cyclase, the culture medium was aspirated and the cells were washed once with Ringer solution. After removing the Ringer solution, the cells were incubated for 10 minutes at 37° C./5% CO2 in stimulation buffer with or without NO donor (sodium nitroprusside, SNP, 1 μM). […] The supernatants containing the intracellular cGMP were then removed and the cGMP concentration was determined by means of the cGMP-SPA system (Amersham Buchler, Brunswick).

anaesthetized rats = assay: Blood pressure measurements in anaesthetized rats; format: in vivo, rat; conditions: male Wistar rats, oral
Protocol: as §1
Male Wistar rats having a body weight of 300-350 g are anaesthetized with thiopental (100 mg/kg i.p.) After tracheotomy, a catheter is inserted in the femoral artery for blood pressure measurement. The substances to be tested are administered orally in various doses by means of stomach tube as a suspension in Tylose solution.

SMILES	melting point [°C]	other results
O=CNc1nc(-c2ccccc2)nc2c1c(-c1ccc(CO)o1)nn2Cc1ccccc1F [Example 40]	189	
O=Cc1ccc(-c2nn(Cc3ccccc3F)c3nc(O)ccc23)o1 [Example 32]		cGMP increase (%) [1]: 135%
Nc1nc(N)c2c(-c3ccc(CO)o3)nn(Cc3ccccc3F)c2n1 [Example 38]	205	
OCc1ccc(-c2nn(Cc3ccccc3)c3ncncc23)o1 [Example 34]	165	
Nc1ncnc2c1c(-c1ccc(CO)o1)nn2Cc1ccccc1F [Example 36]	207	
Cc1cc(C)c2c(-c3ccc(CO)o3)nn(Cc3ccccc3)c2n1 [Example 43]	155	
Nc1ncnc2c1c(-c1ccc(CO)o1)nn2Cc1ccccc1 [Example 35]	213	
CN(C)[S+]([O-])c1ccc(-c2nn(Cc3ccccc3F)c3ncccc23)o1 (centres unmarked) [Example 50]	107	
Cc1nc2c(c(-c3ccc(CO)o3)nn2Cc2ccccc2)c(C)c1C [Example 44]	180	
COCCOc1cnc2c(c1)c(-c1ccc(CO)o1)nn2Cc1ccccc1F [Example 42]	106	
OCc1ccc(-c2nn(Cc3ccccc3)c3ncccc23)o1 [Example 13, 1-Benzyl-3-(5-hydroxymethyl-2-furyl)-1-H-pyrazolo[3,4-b]pyridine]		Max blood pressure fall (anaesthetized rats; dose 10 mg/kg): −13 mm Hg; Time (of max blood pressure fall) (anaesthetized rats; dose 10 mg/kg): 60 min; Max blood pressure fall (anaesthetized rats; dose 30 mg/kg): −23 mm Hg; Time (of max blood pressure fall) (anaesthetized rats; dose 30 mg/kg): 60 min
CN(C)c1ncnc2c1c(-c1ccc(CO)o1)nn2Cc1ccccc1F [Example 37]	94	
Nc1nc(-c2ccccc2)nc2c1c(-c1ccc(CO)o1)nn2Cc1ccccc1F [Example 39]	225	

The next lines start with results.

melting point [°C]	SMILES	other results
69	CCCCCCCCN[S+]([O-])c1ccc(-c2nn(Cc3ccccc3F)c3ncccc23)o1 (centres unmarked) [Example 53]	
106	Cc1coc(-c2nn(Cc3ccccc3F)c3ncccc23)n1 [Example 67]	
138	[O-][S+](NC1CC1)c1ccc(-c2nn(Cc3ccccc3F)c3ncccc23)o1 (centres unmarked) [Example 57]	
161	[O-][S+](NC1CCCCCC1)c1ccc(-c2nn(Cc3ccccc3F)c3ncccc23)o1 (centres unmarked) [Example 60]	
107	[O-][S+](c1ccc(-c2nn(Cc3ccccc3F)c3ncccc23)o1)N1CCCC1 (centres unmarked) [Example 65]	
132	CC(N[S+]([O-])c1ccc(-c2nn(Cc3ccccc3F)c3ncccc23)o1)c1ccccc1 (centres unmarked) [Example 64]	
110	[O-][S+](Nc1cccc(Cl)c1)c1ccc(-c2nn(Cc3ccccc3F)c3ncccc23)o1 (centres unmarked) [Example 66]	
122	[O-][S+](c1ccc(-c2nn(Cc3ccccc3F)c3ncccc23)o1)N1CCOCC1 (centres unmarked) [Example 54]	
145	Cc1nc(-c2nn(Cc3ccccc3F)c3ncccc23)oc1CO [Example 68]	
109	CC(C)CN[S+]([O-])c1ccc(-c2nn(Cc3ccccc3F)c3ncccc23)o1 (centres unmarked) [Example 58]	
279	CN1CCC([S+]([O-])c2ccc(-c3nn(Cc4ccccc4F)c4ncccc34)o2)CC1 (centres unmarked) [Example 52]	
136	CC(C)N[S+]([O-])c1ccc(-c2nn(Cc3ccccc3F)c3ncccc23)o1 (centres unmarked) [Example 56]	
126	[O-][S+](NCc1ccccc1)c1ccc(-c2nn(Cc3ccccc3F)c3ncccc23)o1 (centres unmarked) [Example 51]	
158	[O-][S+](NCc1cccc2ccccc12)c1ccc(-c2nn(Cc3ccccc3F)c3ncccc23)o1 (centres unmarked) [Example 63]	
109	CC(C)NS(=O)(=O)c1ccc(-c2nn(Cc3ccccc3F)c3ncccc23)o1 [Example 61]	
114	CCCCCCN[S+]([O-])c1ccc(-c2nn(Cc3ccccc3F)c3ncccc23)o1 (centres unmarked) [Example 59]	
